Format in all cases: biochemical
One test concerns the target T1, Human VAP-1 (Homo sapiens, UniProt Q16853).
T1 sequence (Q16853 1-763): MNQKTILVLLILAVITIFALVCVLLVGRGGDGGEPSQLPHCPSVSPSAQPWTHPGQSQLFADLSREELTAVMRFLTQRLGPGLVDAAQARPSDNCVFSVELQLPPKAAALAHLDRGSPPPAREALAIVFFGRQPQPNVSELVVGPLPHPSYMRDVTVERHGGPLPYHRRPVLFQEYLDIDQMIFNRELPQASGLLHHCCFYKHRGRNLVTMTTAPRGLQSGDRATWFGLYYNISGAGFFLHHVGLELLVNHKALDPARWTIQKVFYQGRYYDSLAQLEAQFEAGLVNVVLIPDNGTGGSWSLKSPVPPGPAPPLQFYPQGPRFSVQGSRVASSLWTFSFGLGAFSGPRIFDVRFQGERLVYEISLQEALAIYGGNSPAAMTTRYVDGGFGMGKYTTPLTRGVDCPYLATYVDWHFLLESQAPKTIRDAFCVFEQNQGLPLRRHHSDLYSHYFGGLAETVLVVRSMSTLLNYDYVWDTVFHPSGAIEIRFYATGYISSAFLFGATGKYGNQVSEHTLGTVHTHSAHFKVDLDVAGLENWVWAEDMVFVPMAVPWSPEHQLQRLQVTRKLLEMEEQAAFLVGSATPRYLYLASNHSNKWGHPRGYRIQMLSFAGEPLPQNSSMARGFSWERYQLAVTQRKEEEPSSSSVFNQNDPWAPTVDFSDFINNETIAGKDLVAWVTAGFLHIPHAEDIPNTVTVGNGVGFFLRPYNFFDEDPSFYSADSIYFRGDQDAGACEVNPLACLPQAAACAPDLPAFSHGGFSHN
The test can be described thus: VAP-1 inhibition assay (Amplex Red continuous fluorescence assay). The following applies: 30 min pre-incubation at 37° C.; substrate benzylamine; read-out: Human VAP-1 IC50. The procedure, abridged:
(§1)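 Continuous Amplex Red/HRP fluorescence read of H2O2 (ex/em 510/565 nm, 5 min). Substrates and buffers: VAP-1 benzylamine, […] sodium phosphate pH 7.4, 30 min 37° C preincubation; MAO-A tyramine and MAO-B benzylamine, same buffer, room temp; DAO histamine, 50 mM HEPES pH 7.5, room temp. IC50 from 4-parameter fit of rates.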

For a further test, the target named is T2, Human MAO-A (Homo sapiens, UniProt P21397).
T2 sequence (P21397 1-527): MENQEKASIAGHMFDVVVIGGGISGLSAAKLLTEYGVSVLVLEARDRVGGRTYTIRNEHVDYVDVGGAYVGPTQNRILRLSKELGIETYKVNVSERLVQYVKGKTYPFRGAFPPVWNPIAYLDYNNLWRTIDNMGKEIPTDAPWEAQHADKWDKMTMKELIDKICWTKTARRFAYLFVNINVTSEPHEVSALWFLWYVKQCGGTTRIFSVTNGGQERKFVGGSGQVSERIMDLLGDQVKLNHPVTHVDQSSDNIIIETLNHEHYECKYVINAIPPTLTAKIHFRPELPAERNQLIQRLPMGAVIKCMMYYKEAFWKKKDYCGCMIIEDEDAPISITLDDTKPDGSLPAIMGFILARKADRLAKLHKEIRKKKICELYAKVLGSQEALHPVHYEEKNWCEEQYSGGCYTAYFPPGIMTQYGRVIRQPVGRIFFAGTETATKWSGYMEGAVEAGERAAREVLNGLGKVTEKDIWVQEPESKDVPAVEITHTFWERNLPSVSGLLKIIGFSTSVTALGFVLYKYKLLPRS
The test can be described thus: MAO-A inhibition (Amplex Red continuous fluorescence assay). The following applies: 30 min pre-incubation at room temp; substrate tyramine; read-out: Human MAO-A IC50. The procedure, abridged:
as §1

The target of a further test is T3, Human MAO-B (Homo sapiens, UniProt P27338).
T3 sequence (P27338 1-520): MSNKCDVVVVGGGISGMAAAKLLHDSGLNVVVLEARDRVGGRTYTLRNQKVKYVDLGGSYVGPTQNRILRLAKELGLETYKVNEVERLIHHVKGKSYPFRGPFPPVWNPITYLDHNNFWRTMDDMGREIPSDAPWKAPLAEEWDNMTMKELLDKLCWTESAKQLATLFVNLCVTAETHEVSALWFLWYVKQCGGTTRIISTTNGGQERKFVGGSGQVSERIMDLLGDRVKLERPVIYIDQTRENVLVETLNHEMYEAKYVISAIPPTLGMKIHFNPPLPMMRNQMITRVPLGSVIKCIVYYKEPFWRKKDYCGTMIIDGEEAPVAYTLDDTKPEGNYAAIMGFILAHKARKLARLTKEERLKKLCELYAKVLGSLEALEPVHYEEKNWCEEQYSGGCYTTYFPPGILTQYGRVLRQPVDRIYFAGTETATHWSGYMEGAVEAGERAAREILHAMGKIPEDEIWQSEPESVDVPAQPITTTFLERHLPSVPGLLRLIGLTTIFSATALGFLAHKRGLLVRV
The test can be described thus: MAO-B inhibition (Amplex Red continuous fluorescence assay). The following applies: 30 min pre-incubation at room temp; substrate benzylamine; read-out: Human MAO-B IC50. The procedure, abridged:
as §1

A further test deals with T4, Human DAO (Homo sapiens, UniProt P19801).
T4 sequence (P19801 20-751): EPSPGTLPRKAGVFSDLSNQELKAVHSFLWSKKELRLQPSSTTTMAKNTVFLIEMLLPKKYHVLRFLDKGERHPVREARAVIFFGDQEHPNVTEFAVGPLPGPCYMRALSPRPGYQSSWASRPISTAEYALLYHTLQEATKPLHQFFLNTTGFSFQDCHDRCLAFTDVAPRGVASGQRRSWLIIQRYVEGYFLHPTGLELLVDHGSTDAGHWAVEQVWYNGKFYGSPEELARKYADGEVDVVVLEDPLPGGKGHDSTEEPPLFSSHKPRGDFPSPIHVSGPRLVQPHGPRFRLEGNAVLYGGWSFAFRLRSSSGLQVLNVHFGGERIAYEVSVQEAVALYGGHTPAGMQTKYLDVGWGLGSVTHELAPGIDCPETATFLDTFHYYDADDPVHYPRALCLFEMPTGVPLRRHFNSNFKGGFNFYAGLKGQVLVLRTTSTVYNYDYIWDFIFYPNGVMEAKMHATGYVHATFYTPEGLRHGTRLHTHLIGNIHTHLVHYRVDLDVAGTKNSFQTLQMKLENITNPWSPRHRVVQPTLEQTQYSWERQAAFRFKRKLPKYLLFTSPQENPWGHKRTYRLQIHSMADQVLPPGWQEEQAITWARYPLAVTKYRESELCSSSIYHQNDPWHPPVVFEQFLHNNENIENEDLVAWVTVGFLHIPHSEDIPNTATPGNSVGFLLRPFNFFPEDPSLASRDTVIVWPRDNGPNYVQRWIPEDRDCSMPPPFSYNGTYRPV
The test can be described thus: DAO inhibition (Amplex Red continuous fluorescence assay). The following applies: 30 min pre-incubation at room temp; substrate histamine; read-out: Human DAO IC50. An outline of the steps:
as §1

Usually pIC50 stands for the IC50 on a negative log10 scale, so that one unit is a factor of ten.

pIC50: −log10 of the molar value. Where a name gives a salt, the structure may show the parent alone. A value given as a limit tells only on which side of the number the result lay.

`NC/C(=C/F)COC(=O)Nc1ccccc1` [Compound 68, (Z)-2-(aminomethyl)-3-fluoroalkyl phenylcarbamate]: the pIC50 on Human VAP-1, at Human MAO-A, at Human MAO-B and at Human DAO was above 5.52 each time.

Consider `Cn1ccc(-c2ccc(OC/C(=C\F)CN)cc2)n1` [Compound 54, (Z)-3-fluoro-2-((4-(1-methyl-1H-pyrazol-3-yl)phenoxy)methyl)prop-2-en-1-amine hydrochloride], for which the pIC50 is above 5.52 at Human VAP-1, 5.00 to 5.52 on Human MAO-A, above 5.52 at Human MAO-B and above 5.52 at Human DAO.

`NC/C(=C/F)COc1ccc(-c2ncccn2)cc1` [Compound 38, (Z)-3-fluoro-2-((4-(pyrimidin-2-yl)phenoxy)methyl)prop-2-en-1-amine hydrochloride]: the negative-log IC50 (pIC50) at Human VAP-1, at Human MAO-A, at Human MAO-B and at Human DAO was above 5.52 each time.

Consider `CCNC(=O)Oc1ccc(OC/C(=C\F)CN)cc1` [Compound 56, (Z)-4-((2-(aminomethyl)-3-fluoroalkyl)oxy)phenyl ethylcarbamate], for which the pIC50 on Human VAP-1, at Human MAO-A, at Human MAO-B and on Human DAO was above 5.52 in each case.

With `NC/C(=C/F)COc1ccc(-c2ncon2)cc1` [Compound 44, (Z)-2-((4-(1,2,4-OXADIAZOL-3-YL)PHENOXY)METHYL)-3-FLUOROPROP-2-EN-1-AMINE HYDROCHLORIDE], the negative-log IC50 (pIC50) on Human VAP-1, on Human MAO-A, on Human MAO-B and at Human DAO was above 5.52 each time.

With `NC/C(=C\F)Cn1ccc2ccccc21` [Compound 15, (E)-2-((1H-indol-1-yl)methyl)-3-fluoroprop-2-en-1-amine hydrochloride], the negative-log IC50 (pIC50) is above 5.52 on Human VAP-1, above 5.52 on Human MAO-A, above 5.52 at Human MAO-B and below 5.00 on Human DAO.

On to `NC/C(=C\F)Cn1ncc(-c2ccc(O)cc2)n1` [Compound 57, (E)-4-(2-(2-(aminomethyl)-3-fluoroalkyl)-2H-1,2,3-triazol-4-yl)phenol hydrochloride], for which the pIC50 on Human VAP-1 was above 5.52; at Human MAO-A, above 5.52; on Human MAO-B it was 5.00 to 5.52; at Human DAO it was above 5.52.

As to `NC/C(=C/F)COc1ccc(-c2nccs2)cc1` [Compound 20, (Z)-3-Fluoro-2-((4-(Thiazol-2-Yl)Phenoxy)Methyl)Prop-2-En-1-Amine Hydrochloride], the pIC50 on Human VAP-1, on Human MAO-A, at Human MAO-B and at Human DAO was above 5.52 throughout.

With `NC/C(=C/F)COCc1ccccc1` [Compound 6, (Z)-2-((benzyloxy)methyl)-3-fluoroprop-2-en-1-amine hydrochloride], the pIC50 is above 5.52 at Human VAP-1, above 5.52 on Human MAO-A, above 5.52 on Human MAO-B and 5.00 to 5.52 at Human DAO.

Turning to `NC/C(=C\F)COC(=O)Nc1ccccc1` [Compound 65, (E)-2-(aminomethyl)-3-fluoroalkyl phenylcarbamate], the negative logarithm of the IC50 (pIC50) at Human VAP-1 is above 5.52; on Human MAO-A, 5.00 to 5.52; at Human MAO-B it was 5.00 to 5.52; on Human DAO it was above 5.52.

With `Cn1nccc1-c1ccc(OC/C(=C\F)CN)cc1` [Compound 49, (Z)-3-fluoro-2-((4-(1-methyl-1H-pyrazol-5-yl)phenoxy)methyl)prop-2-en-1-amine hydrochloride], the pIC50 at Human VAP-1, at Human MAO-A, on Human MAO-B and at Human DAO was above 5.52 in each case.

Consider `NC/C(=C\F)COc1ccc(-c2cnc[nH]2)cc1` [Compound 40, (E)-2-((4-(1H-imidazol-5-yl)phenoxy)methyl)-3-fluoroprop-2-en-1-amine], for which the pIC50 at Human VAP-1 is above 5.52; at Human MAO-A it was 5.00 to 5.52; at Human MAO-B, above 5.52; at Human DAO, above 5.52.

Turning to `NC/C(=C\F)CNCc1ccccc1` [Compound 26, (E)-N^1-benzyl-2-(fluoromethylene)propane-1,3-diamine], the pIC50 at Human VAP-1 was above 5.52; on Human MAO-A it was 5.00 to 5.52; on Human MAO-B, above 5.52; at Human DAO, below 5.00.

`NC/C(=C\F)COc1ccc(-c2ncn[nH]2)cc1` [Compound 64, (E)-2-((4-(1H-1,2,4-triazol-5-yl)phenoxy)methyl)-3-fluoroprop-2-en-1-amine]: the pIC50 is above 5.52 on Human VAP-1, 5.00 to 5.52 on Human MAO-A, above 5.52 on Human MAO-B and above 5.52 at Human DAO.

With `NC/C(=C/F)COc1ccc(-c2ncco2)cc1` [Compound 53, (Z)-3-fluoro-2-((4-(oxazol-2-yl)phenoxy)methyl)prop-2-en-1-amine hydrochloride], the pIC50 at Human VAP-1 is above 5.52; on Human MAO-A, 5.00 to 5.52; at Human MAO-B, above 5.52; on Human DAO it was above 5.52.

With `NC/C(=C/F)COc1ccc(-c2ccccc2)cc1` [Compound 34, (Z)-2-(([1,1′-biphenyl]-4-yloxy)methyl)-3-fluoroprop-2-en-1-amine hydrochloride], the pIC50 on Human VAP-1, on Human MAO-A, at Human MAO-B and at Human DAO was above 5.52 each time.

As to `NC/C(=C/F)COc1ccc(-c2cocn2)cc1` [Compound 30, (Z)-3-fluoro-2-((4-(oxazol-4-yl)phenoxy)methyl)prop-2-en-1-amine hydrochloride], the pIC50 on Human VAP-1, at Human MAO-A, at Human MAO-B and at Human DAO was above 5.52 each time.
